Structures are written as SMILES. Like-named read-outs stand apart in the source and are kept apart here.

Experimental findings from patent US12612368B2 (Remedy Plan, Inc., priority 2019, dated 2026) are described below.

For assay [1], the target named is T1, NAMPT (Homo sapiens, UniProt P43490).
T1 construct: purchased Abcam ab221819
The assay can be described thus: NAMPT Activity Assay (Abcam #ab221819). Type of assay: biochemical. The conditions noted are these: purified NAMPT, two-step reaction, OD450 nm; percent inhibition vs no drug; compound concentration not stated.

The subject of assay [2] is MV-4-11 cells. The experiment in a line: Cell viability in MV-4-11 cells (CellTiter Glo2). Type of assay: cell-based. Conditions: Homo sapiens, MV4-11, 96 h, 8-point dose response, 4 days.
Procedure: Approximately 10,000 MV-4-11 cells per well of a 96-well plate were treated with DMSO (no drug control) or each compound in Tables E1 and E2 in an 8-point dose response for 4 days, Cell viability was measured using CellTiter Glo2. The ICse of each compound was determined using CDD Vault.
[3] abbreviates: CellTiter Glo2 (Table E2), read-out: MV-4-11 Cell Viability, MV-4-11 IC50.
Setting [4] is: CellTiter Glo2 (Table E1), read-out: MV-4-11 IC50.

T1 sequence (P43490 whole entry): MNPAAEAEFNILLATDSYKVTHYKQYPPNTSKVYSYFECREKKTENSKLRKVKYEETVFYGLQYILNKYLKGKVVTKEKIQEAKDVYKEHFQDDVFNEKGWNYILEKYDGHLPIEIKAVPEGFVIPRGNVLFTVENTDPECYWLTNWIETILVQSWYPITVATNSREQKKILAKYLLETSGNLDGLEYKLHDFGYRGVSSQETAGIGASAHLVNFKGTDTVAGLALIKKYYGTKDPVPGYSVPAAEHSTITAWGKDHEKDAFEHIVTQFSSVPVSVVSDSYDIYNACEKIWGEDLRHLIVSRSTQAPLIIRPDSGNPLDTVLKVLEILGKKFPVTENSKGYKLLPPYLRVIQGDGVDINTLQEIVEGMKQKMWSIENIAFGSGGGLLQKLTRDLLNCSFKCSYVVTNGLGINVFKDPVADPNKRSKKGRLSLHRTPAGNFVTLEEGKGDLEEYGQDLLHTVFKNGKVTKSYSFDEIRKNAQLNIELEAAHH

With `CCOC(=O)NCCC(=O)N(C)c1ccc(-c2ccc(C(=O)NCc3cccnc3C)cn2)cc1C` [Compound I-491, Ethyl N-[3-[N,2-dimethyl-4-[5-[(2-methyl-3-pyridyl)methylcarbamoyl]-2-pyridyl]anilino]-3-oxo-propyl]carbamate], in assay [1], the “NAMPT Inhibition Code” value is listed as “A (A = <33% inhibition)”. Further, the IC50 in assay [2] (setting [3]) was 1830 nM.

As to `CC(=O)N(CC1CC1)c1ccc(-c2ccc(C(=O)NCc3cccnc3C)cn2)cc1C` [Compound I-488, 6-[4-[Acetyl(cyclopropylmethyl)amino]-3-methyl-phenyl]-N-[(2-methyl-3-pyridyl)methyl]pyridine-3-carboxamide], the “NAMPT Inhibition Code” value in assay [1] is “A (A = <33% inhibition)”. Further, the concentration for half-maximal inhibition (IC50) in assay [2] (setting [3]) was determined as 2820 nM.

Consider `CC(=O)N(CC1CC1)c1ccc(-c2ccc(C(=O)NCc3ccnc(N)c3)cn2)cc1Cl` [Compound I-674, 6-[4-[Acetyl(cyclopropylmethyl)amino]-3-chloro-phenyl]-N-[(2-amino-4-pyridyl)methyl]pyridine-3-carboxamide], for which the “NAMPT Inhibition Code” value in assay [1] is listed as “B (B = ≥33 to <66% inhibition)”. The IC50 in assay [2] (setting [3]) turned out to be 350 nM.

`CC(=O)N(CC1CC(F)(F)C1)c1ccc(-c2ccc(C(=O)NCc3cccnc3)cn2)cc1` [Compound I-412, 6-[4-[acetyl-[(3,3-difluorocyclobutyl)methyl]amino]phenyl]-N-(3-pyridylmethyl)pyridine-3-carboxamide]: the “NAMPT Inhibition Code” value in assay [1] was “B (B = ≥33 to <66% inhibition)”. In addition, the IC50 in assay [2] (setting [4]) was found to be 82.5 nM.

In the case of `CC(=O)N(CC1CC(F)(F)C1)c1ccc(-c2ccc(C(=O)NCc3cccnc3C)cn2)cc1C` [Compound I-485, 6-[4-[Acetyl-[(3,3-difluorocyclobutyl)methyl]amino]-3-methyl-phenyl]-N-[(2-methyl-3-pyridyl)methyl]pyridine-3-carboxamide], the “NAMPT Inhibition Code” value in assay [1] was “A (A = <33% inhibition)”. For the same compound, the IC50 in assay [2] (setting [3]) came to 1340 nM.

As for `CC(=O)N(CC1CC1)c1ccc(-c2ccc(C(=O)NCc3ccc4nccn4c3)cn2)cc1Cl` [Compound I-679, 6-[4-[Acetyl(cyclopropylmethyl)amino]-3-chloro-phenyl]-N-(imidazo[1,2-a]pyridin-6-ylmethyl)pyridine-3-carboxamide], the “NAMPT Inhibition Code” value in assay [1] was “C (C = ≥66% inhibition)”. Further, the IC50 in assay [2] (setting [3]) turned out to be 0.566 nM.

As to `CCOC(=O)N(C)c1ccc(-c2ccc(C(=O)NCc3cccnc3)nc2)cc1` [Compound I-330, ethyl N-methyl-N-[4-[6-(3-pyridylmethylcarbamoyl)-3-pyridyl]phenyl]carbamate], the “NAMPT Inhibition Code” value in assay [1] is reported as “A (A = <33% inhibition)”. Moreover, the IC50 in assay [2] (setting [4]) turned out to be 6080 nM.
